{"source": "patent US9937250B2", "about": "“Immunogenic tumor associated stromal cell antigen peptides and methods of their use” (University of Pittsburgh—Of the Commonwealth System of …, priority 2011, dated 2018)", "system": "CD8+ splenocytes", "assay": "Tc1 response to DC.IL12/peptide vaccination (splenic CD8+ T cell IFN-γ ELISA against peptide-pulsed T2 cells)", "assay_type": "in vivo, HHD mice", "conditions": "DC.IL12 pulsed with peptide(s), two s.c. vaccinations; versus DC only", "from_the_text": "FIGS. 9A-9B show a series of graphs illustrating induction of specific/protective CD8^+ T cells reactive against TASA as a consequence of DC/peptide-based vaccination. In FIG. 9A, HHD mice (five animals/cohort) were vaccinated twice (d-14, d-7) subcutaneously with PBS or with isologous DC.IL12 pulsed with PBS or synthetic peptides (Table 6) derived from the indicated TASA. In cases where more than 1 peptide was identified for a given target antigen, an equimolar pool of the indicated peptides (each 10 μM) was pulsed onto DC.IL12 and used for vaccination in the relevant cohort. One week after the second immunization, spleens were harvested and splenic CD8^+ T cells isolated using MACS-beads (Miltenyi). T cells were stimulated in vitro for 48 h using the HLA-A2^+ T2 cell line pulsed with relevant TASA vs. irrelevant HIV-nef190-198 ([…]; ref. 24) peptides. Cell-free supernatants were then recovered and IFN-γ levels by ELISA. Data are reported as mean+/−SD for triplicate ELISA determinations, and are representative of 3 independent experiments performed. *p<0.05 vs. HIV-nef control peptide responses. In FIG. 9B, HHD mice were vaccinated twice (days −14 and −7; right flank) subcutaneously with PBS or with isologous DC.IL12 pulsed with PBS or synthetic TASA peptides as indicated in FIG. 1A. In cases where more than 1 peptide is identified for a given target antigen, an equimolar pool of the indicated peptides (each 10 μM) was pulsed onto DC.IL12 and used for vaccination in the relevant cohort. One week after the booster vaccine (i.e. day zero), animals were challenged subcutaneously on their left flank with 2×10^6 MC38 colon carcinoma cells. Tumor growth was then monitored every 3-4 days through day 24. All data represent mean tumor area (in mm^2)+/−SD determined from 5 mice/cohort, and are representative of three independent experiments performed. *p<0.05 versus DC only on the indicated days.\nVaccine Experiments. For prophylactic experiments, HHD mice were immunized subcutaneously on the right flank with 100 μl PBS or PBS containing 10^6 syngenic DC.IL12 cells that had been untreated or pre-pulsed for 4 h at 37° C. with 10 μM synthetic peptide(s). Immunizations occurred on days −14 and −7, with mice subsequently receiving injections of MC38 (2×10^6) tumor cells in the left flank on d0. In all cases, treatment groups contained 5 mice per cohort. For analysis of tumor cellular composition in repeat experiments, MC38 tumors were isolated by surgical resection 10 days after tumor inoculation and prepared for fluorescence imaging, as described below. […] Mice were then untreated or treated with control, syngenic DC.IL12 or DC.IL12 (10^6 cells injected subcutaneously in the left flank on days 7 and 14) pulsed with synthetic TBVA peptides. In some assays, as indicated, in vivo antibody depletions (on days 6, 13 and 20 post-tumor inoculation to assess early involvement or on days 60 and 67 or 180 and 187 to assess late involvement) of protective CD4^+ T cells or CD8^+ T cells were performed and monitored as previously described (Zhao et al., Mol Ther., 19:805-814, 2011). In all cases, tumor size (area) was monitored every 3-4 days and is reported as mean+/−SD in mm^2.\nEvaluation of Specific CD8^+ T Cell Responses in HHD Mice. MACS (Miltenyi Biotec) CD8^+ splenocytes were harvested (from 3 mice/group) 7 days after the second round of DC-based vaccination (i.e. day 21 after tumor inoculation) and analyzed for reactivity against unpulsed T2 cells, TBVA peptide-pulsed T2 cells, or day 19 (flow-sorted) B16-derived PDGFRβ^+CD31^negH-2K^b(neg) pericytes or PDGFRβ^negCD31^+H-2K^b(neg) VEC isolated as previously described (Zhao et al., Mol Ther., 19:805-814, 2011). Where indicated, 10 μg of anti-HLA-A2 mAb BB7.2 or control anti-class II mAb L243 (both from ATCC, Manassas, Va.) were added to replicate co-culture wells. After 48 h, supernatants were analyzed for mIFN-γ content by specific ELISA (BD-Biosciences; lower detection limit=31.3 pg/ml). […]"}
{"sequence": "LAALPHSCL (listed as Homo sapiens)", "values": [{"measurement": "Tc1 Response to Peptide Vaccine (HHD)", "result": "+ (+, p < 0.05 versus DC only)"}]}
